Source: US8486606B2, “Acrylate derivative, haloester derivative, polymer compound and photoresist composition” (Kuraray Co., Ltd., priority 2008, dated 2013)

Test: Evaluation of solubility at 25° C. in organic solvent
Assay type: physicochemical
Experimental: A solubility of 2-methacryloyloxyacetoxy-4,5-oxathiatricyclo[4.2.1.0^3,7]nonane-5,5-dioxide obtained in Example 2 in tetrahydrofuran was measured according to the following operation.
1 g of a sample to be used for the evaluation of solubility was prepared. 1 g of an organic solvent described in Table 1 and the foregoing sample were mixed at 25° C., and the mixture was stirred at 25° C. for 10 minutes as it was. An insoluble matter was filtered out from the obtained mixed solution, and the organic solvent was distilled off from the filtrate. Subsequently, the residue was dried under reduced pressure for 5 hours, thereby obtaining the sample in the saturated solution. A mass of the subject sample was measured, and its solubility was calculated according to the following expression. Solubility(% by mass)=100×(Mass of the sample in the saturated solution)/(Mass of the saturated solution)
The experiment and evaluation of solubility were carried out in the same manner as in Example 7, except that in Example 7, the sample and the organic solvent were changed to those shown in Table 1 or Table 2.

[1] = organic solvent: Methyl ethyl ketone
[2] = organic solvent: Tetrahydrofuran

Compound | Solubility [1] [% by mass] | Solubility [2] [% by mass]
C=C(C)C(=O)OCC(=O)OC1C2CC3C(O2)C1OS3(=O)=O (stereo not drawn) [Example 4, 5-methacryloyloxyacetoxy-3,7-dioxa-2-thiatricyclo[4.2.1.0^4,8]nonane-2,2-dioxide] | 30.8 | 31.9
C=C(C)C(=O)OCC(=O)OC1C2CC3C1OS(=O)(=O)C3C2 (stereo not drawn) [Example 2, 2-methacryloyloxyacetoxy-4,5-oxathiatricyclo[4.2.1.0^3,7]nonane-5,5-dioxide] | 45.5 | 48.1
C=C(C)C(=O)OCC(=O)OC1C2CC3C(=O)OC1C3O2 (stereo not drawn) [reference compound] | 4.2 | 7.8
